Source: PubChem BioAssay AID248 (DTP/NCI, 2004)
Where “and” joins values, the source holds several entries; their conditions need not be identical. Identical values can stand only once. Inconclusive results and toxic doses are left out. No stated cut-off is given here; in the data, active means T/C of 150% or more; inactive means T/C below 125%.

Test system: L1210 leukemia ip in BDF1 mice, survival T/C
Test: NCI In Vivo Anticancer Drug Screen. Data for tumor model L1210 Leukemia (intraperitoneal) in B6D2F1 (BDF1) mice
Conditions: endpoint: mean survival time, higher = longer survival
Procedure, shortened: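 Transplantable tumor model; survival measured in treated vs vehicle control mice. Value = treated/control.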

[1] = dose: 12.5 mg/kg/injection, schedule: Q04DX003 (ip), vehicle: Klucel (hydroxypropylcellulose) (HPC)
[2] = dose: 25.0 mg/kg/injection, schedule: Q04DX003 (ip), vehicle: Klucel (hydroxypropylcellulose) (HPC)
[3] = dose: 100.0 mg/kg/injection, schedule: Q04DX002 (ip), vehicle: saline
[4] = dose: 200.0 mg/kg/injection, schedule: Q04DX002 (ip), vehicle: saline
[5] = dose: 400.0 mg/kg/injection, schedule: Q04DX002 (ip), vehicle: saline
[6] = dose: 100.0 mg/kg/injection, schedule: Q01DX001 (ip), vehicle: saline with Tween-80
[7] = dose: 200.0 mg/kg/injection, schedule: Q01DX001 (ip), vehicle: saline with Tween-80
[8] = dose: 400.0 mg/kg/injection, schedule: Q01DX001 (ip), vehicle: saline with Tween-80
[9] = dose: 100.0 mg/kg/injection, schedule: Q01DX001 (ip), vehicle: saline
[10] = dose: 200.0 mg/kg/injection, schedule: Q01DX001 (ip), vehicle: saline
[11] = dose: 400.0 mg/kg/injection, schedule: Q01DX001 (ip), vehicle: saline
[12] = dose: 50.0 mg/kg/injection, schedule: Q01DX009 (ip), vehicle: Klucel (hydroxypropylcellulose) (HPC)
[13] = dose: 100.0 mg/kg/injection, schedule: Q01DX009 (ip), vehicle: Klucel (hydroxypropylcellulose) (HPC)
[14] = dose: 100.0 mg/kg/injection, schedule: Q01DX009 (ip), vehicle: saline with Tween-80
[15] = dose: 100.0 mg/kg/injection, schedule: Q04DX003 (ip), vehicle: saline with Tween-80
[16] = dose: 200.0 mg/kg/injection, schedule: Q04DX003 (ip), vehicle: saline with Tween-80
[17] = dose: 400.0 mg/kg/injection, schedule: Q04DX003 (ip), vehicle: saline with Tween-80
[18] = dose: 100.0 mg/kg/injection, schedule: Q04DX003 (ip), vehicle: Klucel (hydroxypropylcellulose) (HPC)
[19] = dose: 200.0 mg/kg/injection, schedule: Q04DX003 (ip), vehicle: Klucel (hydroxypropylcellulose) (HPC)
[20] = dose: 400.0 mg/kg/injection, schedule: Q04DX003 (ip), vehicle: Klucel (hydroxypropylcellulose) (HPC)
[21] = dose: 200.0 mg/kg/injection, schedule: Q01DX009 (ip), vehicle: Klucel (hydroxypropylcellulose) (HPC)
[22] = dose: 400.0 mg/kg/injection, schedule: Q01DX009 (ip), vehicle: Klucel (hydroxypropylcellulose) (HPC)

Measured: T/C

[CH3][Sb]([CH3])[S]C1OC(CO)C(O)C(O)C1O (stereo not given)
inactive: [1] 99 % of control | [2] 89 % of control | dose: 50.0 mg/kg/injection, schedule: Q04DX003 (ip), vehicle: Klucel (hydroxypropylcellulose) (HPC) 95 % of control

CC1N=C1c1ccccc1 (stereo not given)
inactive: [3] 102 % of control | [4] 115 % of control | [5] 105 % of control

c1ccc(N/N=C2/CSCc3ccccc32)cc1
inactive: [6] 97 % of control | [7] 95 % of control | [8] 106 % of control

COC(=O)c1cc(C)cc([N+](=O)[O-])c1C
inactive: dose: 50.0 mg/kg/injection, schedule: Q01DX001 (ip), vehicle: saline 91 % of control | [9] 111 % of control | [10] 100 % of control | [11] 102 % of control

CC(C)(C)SCC(NC(=O)OCc1ccccc1)C(=O)O (stereo not given)
inactive: [12] 100 % of control | dose: 75.0 mg/kg/injection, schedule: Q01DX001 (ip), vehicle: Klucel (hydroxypropylcellulose) (HPC) 91 % of control | [13] 89 % of control | dose: 150.0 mg/kg/injection, schedule: Q01DX001 (ip), vehicle: Klucel (hydroxypropylcellulose) (HPC) 94 % of control | dose: 300.0 mg/kg/injection, schedule: Q01DX001 (ip), vehicle: Klucel (hydroxypropylcellulose) (HPC) 94 % of control

Cc1cc2nc(CBr)c(CBr)nc2cc1C
inactive: dose: 3.12 mg/kg/injection, schedule: Q01DX009 (ip), vehicle: acetone 100 % of control | dose: 6.25 mg/kg/injection, schedule: Q01DX009 (ip), vehicle: acetone 94 % of control | dose: 6.25 mg/kg/injection, schedule: Q04DX003 (ip), vehicle: Klucel (hydroxypropylcellulose) (HPC) 95 % of control | [1] 101 % of control | dose: 12.5 mg/kg/injection, schedule: Q04DX003 (ip), vehicle: saline with Tween-80 98 % of control | [2] 93 % of control

CCOC(=O)/C(C#N)=C\c1cc(OC)ccc1OC
inactive: [14] 101 % of control | [15] 96 % of control | [16] 94 % of control | [17] 93 % of control

C[C@]12CCC(=O)C=C1CC[C@@H]1[C@@H]2[C@@H](O)C[C@@]2(C)[C@H]1CC[C@]2(O)C(=O)CF
inactive: dose: 50.0 mg/kg/injection, schedule: Q01DX Z (sc), vehicle: steriod suspending solution 106 % of control | dose: 250.0 mg/kg/injection, schedule: Q01DX Z (sc), vehicle: steriod suspending solution 104 % of control | dose: 500.0 mg/kg/injection, schedule: Q01DX Z (sc), vehicle: steriod suspending solution 107 % of control

Cc1cc(C)c2ccc(NC(=O)CCC(=O)O)nc2n1
inactive: [9] 95 % of control

c1cc[c]([Pb]([c]2ccccc2)([c]2ccccc2)[n]2c3ccccc3c3ccccc32)cc1
inactive: dose: 1.56 mg/kg/injection, schedule: Q01DX009 (ip), vehicle: saline with Tween-80 99 % of control | dose: 3.12 mg/kg/injection, schedule: Q01DX009 (ip), vehicle: saline with Tween-80 98 % of control | dose: 6.25 mg/kg/injection, schedule: Q01DX009 (ip), vehicle: saline with Tween-80 91 % of control

COc1ccc2c(c1)CCc1cnoc1-2
inactive: [18] 93 % of control | [19] 95 % of control | [20] 95 % of control

CC(=O)NC1C(O)OC(COC(c2ccccc2)(c2ccccc2)c2ccccc2)C(O)C1O (stereo not given)
inactive: [9] 91 % of control | [10] 93 % of control | [11] 104 % of control

O=C(Nc1ccccc1F)OCC1CC2C=CC1C2 (stereo not given)
inactive: [13] 101 % of control | [21] 104 % of control | [22] 93 % of control

CCCCCc1cc(=O)[nH]c(=O)[nH]1
inactive: dose: 50.0 mg/kg/injection, schedule: Q01DX001 (ip), vehicle: Klucel (hydroxypropylcellulose) (HPC) 97 % of control | dose: 100.0 mg/kg/injection, schedule: Q01DX001 (ip), vehicle: Klucel (hydroxypropylcellulose) (HPC) 96 % of control | dose: 200.0 mg/kg/injection, schedule: Q01DX001 (ip), vehicle: Klucel (hydroxypropylcellulose) (HPC) 96 % of control

CSc1ccccc1C=Nc1ccccc1O
inactive: [6] 101 % of control | [7] 98 % of control | [8] 103 % of control

Cc1ccc(S(=O)(=O)CCN2CCc3ccccc3C2)cc1
inactive: [9] 103 % of control | [10] 100 % of control | [11] 97 % of control

CN(C)S(=O)(=O)/C=C/c1ccccc1
inactive: [19] 95 % of control | [20] 109 % of control

CCOP(=O)(CN1CCCCC1)OCC
inactive: [3] 104 % of control | [4] 96 % of control | [5] 104 % of control

O=C1CCC(N2C(=O)C3C(C2=O)C2(Cl)C(Cl)=C(Cl)C3(Cl)C2(Cl)Cl)C(=O)N1 (stereo not given)
inactive: dose: 100.0 mg/kg/injection, schedule: Q04DX003 (ip), vehicle: saline 94 % of control | dose: 200.0 mg/kg/injection, schedule: Q04DX003 (ip), vehicle: saline 97 % of control

CC1=CC(c2c(O)cccc2O)C(=C(C)C)CC1 (stereo not given)
inactive: [12] 95 % of control | [13] 95 % of control | [21] 95 % of control

N#CC1(c2ccc3c(c2)OCO3)C(c2ccc3c(c2)OCO3)CC(O)(c2ccccc2)C1C(=O)c1ccccc1 (stereo not given)
inactive: [14] 96 % of control | dose: 200.0 mg/kg/injection, schedule: Q01DX009 (ip), vehicle: saline with Tween-80 89 % of control | dose: 400.0 mg/kg/injection, schedule: Q01DX009 (ip), vehicle: saline with Tween-80 102 % of control

O=c1[nH]cnc2c1ncn2C1CCC(CO)C1 (stereo not given)
inactive: dose: 100.0 mg/kg/injection, schedule: Q01DX001 (ip), vehicle: carboxymethylcellulose (CMC) 100 % of control | dose: 177.0 mg/kg/injection, schedule: Q01DX001 (ip), vehicle: carboxymethylcellulose (CMC) 98 % of control | dose: 200.0 mg/kg/injection, schedule: Q01DX001 (ip), vehicle: carboxymethylcellulose (CMC) 96 % of control | dose: 266.0 mg/kg/injection, schedule: Q01DX001 (ip), vehicle: carboxymethylcellulose (CMC) 98 % of control | dose: 600.0 mg/kg/injection, schedule: Q01DX001 (ip), vehicle: carboxymethylcellulose (CMC) 100 % of control

OCC(O)C(O)C(O)C(O)C1SCCS1 (stereo not given)
inactive: [13] 88 % of control | [18] 98 % of control and 103 % of control and 93 % of control | [21] 89 % of control | [19] 103 % of control and 93 % of control | [22] 100 % of control | [20] 115 % of control and 88 % of control

CCCCCCCCNc1ccccc1
inactive: [15] 95 % of control | [16] 106 % of control | [17] 117 % of control

Cc1cccc(Nc2nc(N)nc(N)c2N=O)c1
inactive: dose: 100.0 mg/kg/injection, schedule: Q01DX Z (ip), vehicle: methylcellulose (MC) 102 % of control | dose: 100.0 mg/kg/injection, schedule: Q04DX002 (ip), vehicle: Klucel (hydroxypropylcellulose) (HPC) 101 % of control | dose: 200.0 mg/kg/injection, schedule: Q01DX Z (ip), vehicle: methylcellulose (MC) 97 % of control | dose: 200.0 mg/kg/injection, schedule: Q04DX002 (ip), vehicle: Klucel (hydroxypropylcellulose) (HPC) 94 % of control | dose: 400.0 mg/kg/injection, schedule: Q04DX002 (ip), vehicle: Klucel (hydroxypropylcellulose) (HPC) 101 % of control
